From patent US20080103209A1, “Compounds And Methods For Treating Non-Inflammatory Pain Using Ppar Alpha Agonists” (The Regents of The University of California, priority 2004, published 2008)

What was measured:
mice [1] = assay: TPA-induced ear edema (irritant contact dermatitis); format: in vivo, mouse
Description: In addition to rapid-onset analgesia, PEA also exerts prolonged anti-inflammatory effects [Benvenuti, et al., Boll Soc It Biol Sper 44, 809-813 (1968); Lambert, et al., Curr Med. Chem. 9, 663-74 (2002)], which are associated with the down-regulation of pro-inflammatory proteins such as nitric oxide synthase (NOS) [Costa, et al., Br J Pharmacol 137, 413-20. (2002)]. Two models of acute inflammation were used to examine whether such effects are mediated through PPARα. First, paw edema was induced in C57B16J wild-type and PPARα^−/− mice by local injection of the irritant, carrageenan [Cirino, et al., Eur J Pharmacol 166, 505-10 (1989)]. […] Next, ear edema was produced in CD1 mice by topical administration of the phorbol ester, 12-O-tetradecanoylphorbol-13-acetate (TPA) [Sheu, et al., J Invest Dermatol., 94-101. (2002)]. […] In a parallel set of experiments, the effects of PEA (20 μg) on TPA-induced edema were tested in C57B16J wild-type and PPARα^−/− mice. […] Together, these findings indicate that PEA reduces acute nociception and inflammation through activation of PPARα.
As previous described procedure [Sheu, et al., J Invest Dermatol., 94-101. (2002)], 12-O-tetradecanoylphorbol-13-acetate (TPA) was dissolved in acetone (0.03%, w v^−1) and topically delivered with a pipette to the inner and outer surfaces (10 μl/side) of mice ears. Experimental agents were dissolved in acetone and delivered topically (20 μl/side) 45 minutes and 4 hours after TPA. 18 hours after TPA administration, the mice were euthanized with CO2 and the ears punched (diameter=2 mm) four times. The 4 excised punches of skin were combined and weighed to assess edema.

mice [2] = assay: Magnesium sulfate-evoked writhing test; format: in vivo, mouse; conditions: for average ED50, magnesium sulfate-evoked writhing / number of writhing episodes evoked by magnesium sulfate: subcutaneous, Swiss mice; for average ED50, magnesium sulfate-evoked writhing: n=8; for number of writhing episodes evoked by magnesium sulfate: GW7647 1-30, Wy-14643 4-80, PEA 1-20 mg-kg^−1
Method: Mice received a single dose of magnesium sulfate (120 mg/kg, dissolved in 0.5 ml saline, i.p.) and subsequent writhing episodes were monitored for a period of 30 min thereafter. Drugs were administered in saline/Tween 80/polyethylenglycol, (90/5/5) subcutaneously, 30 minutes before magnesium sulfate.
Next, the effect of PPARα agonists on the nocifensive behavior elicited by intraperitoneal injection of magnesium sulfate in mice, a model of visceral pain (Calignano, et al, Eur J Pharmacol 419, 191-8. (2001)), was explored.
Writhing test. Magnesium sulfate was injected (120 mg-kg^−1 in 0.5 ml saline, i.p.) in 12-h food-deprived mice and measured writhing episodes for 30 min (Calignano, et al, Eur J Pharmacol 419, 191-8. (2001)). Drugs or vehicle were administered by subcutaneous injection 30 min before magnesium sulfate.

PPARα mRNA = PPARα mRNA expression in inflamed mouse skin; format: in vivo; conditions: topical to inflamed abdominal skin; PEA 450 μg, GW7647 755 μg
[3] = Tissue PEA levels after subcutaneous PEA (LC/MS); format: in vivo, mouse; conditions: daily PEA injections s.c.
Method: LC/MS analysis. PEA was measured by high-performance liquid chromatography/tandem mass spectrometry. Tissue samples were weighed, cut into 1 mm^2 pieces, and incubated with 1 mL of acetonitrile at 4° C. overnight. Samples of the incubates (100 μl) were transferred to 96-well plates, diluted with 250 μL of acetonitrile containing [H2]-ethanolamine-OEA as an internal standard, and injected into the HPLC. HPLC analyses were carried out on a Waters 2790 Alliance system (Milford, Mass.) using a Phenomenex Synergi Polar-RP column (2 mm×150 mm, 4μ; Torrance, Calif.) and a mobile phase of 0.1% formic acid in water (solvent “A”) and 0.1% formic acid in acetonitrile (solvent “B”). Run conditions were isocratic (25% A and 75% B), at a flow rate of 0.3 mL min^−1, column temperature of 45° C., and a run time of 3 minutes. The HPLC system was interfaced with a Micromass Ultima (Beverly, Mass.) tandem mass spectrometer. The samples were analyzed using an electrospray probe in the positive ionization mode with the cone voltage set at 40 V and capillary at 3.2 kV. The source and desolvation temperature settings were 130° C. and 500° C., respectively. The voltage of the CID chamber was set at −17 eV. Multiple reaction monitoring was used for the detection of PEA as [M+H]^+ (m/z 300>62) and the standard as [M+H]^+ (m/z 330>66).

PPARβ/δ = biological target: T1, PPARβ/δ (Homo sapiens, UniProt Q03181); assay: PPARβ/δ transactivation assay; format: cell-based; conditions: concentrations as high as 20 μM
T1 construct: expressed in transfected cells
T1 sequence (Q03181 1-441): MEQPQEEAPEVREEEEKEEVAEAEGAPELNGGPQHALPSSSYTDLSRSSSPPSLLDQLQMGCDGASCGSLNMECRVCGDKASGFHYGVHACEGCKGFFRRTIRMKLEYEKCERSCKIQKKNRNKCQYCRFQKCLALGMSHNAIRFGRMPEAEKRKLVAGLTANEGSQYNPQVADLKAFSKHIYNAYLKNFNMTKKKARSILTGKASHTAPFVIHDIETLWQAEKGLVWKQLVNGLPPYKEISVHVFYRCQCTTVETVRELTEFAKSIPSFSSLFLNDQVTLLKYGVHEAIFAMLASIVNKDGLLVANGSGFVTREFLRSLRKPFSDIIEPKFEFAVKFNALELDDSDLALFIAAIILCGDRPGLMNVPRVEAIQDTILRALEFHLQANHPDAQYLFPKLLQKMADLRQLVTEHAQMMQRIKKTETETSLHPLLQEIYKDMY
Method: Transactivation assays were performed as previously described [Fu et al., Nature 425:90-93 (2003)].

[4] = topical co-application, CD1 mice

| SMILES | anti-inflammatory activity on TPA-induced edema in PPARα−/− mice (mice [1]; PPARα−/− mice) | TPA-induced ear edema formation (mice [1]; [4]) | average ED50, magnesium sulfate-evoked writhing (mice [2]) [mg/kg] | number of writhing episodes evoked by magnesium sulfate (mice [2]) | PPARα mRNA expression (PPARα mRNA) | TPA-induced edema in wild-type and PPARα−/− mice (mice [1]; PEA 20 μg, C57Bl6J wild-type and PPARα−/− mice) | ED50, TPA-induced ear edema (mice [1]; topical co-application, CD1 mice, n=5) [μg per ear] | brain PEA levels vs vehicle-treated mice [3] | magnesium sulfate induced writhing in PPARα−/− mice (mice [2]; PPARα−/− mice, 20 mg-kg^−1 s.c.) | PPARβ/δ activation (PPARβ/δ) |
| --- | --- | --- | --- | --- | --- | --- | --- | --- | --- | --- |
| CC(C)(Sc1ccc(CCN(CCCCC2CCCCC2)C(=O)NC2CCCCC2)cc1)C(=O)O [GW7647] | residual, albeit weak anti-inflammatory activity | attenuated | 7.5 | dose-dependently decreased the number of writhing episodes | increase in PPARα mRNA expression | – | – | – | – | – |
| CCCCCCCCCCCCCCCC(=O)NCCO [PEA, palmitoylethanolamide] | – | attenuated | 9.9 | dose-dependently decreased the number of writhing episodes | increase in PPARα mRNA expression | effective only in wild-type animals | 8.9 | significantly higher | did not significantly modify | did not activate |
